Experimental data as given in the NIST ThermoML archive (doi:10.1021/je9005344).
± gives the expanded uncertainty stated by the source.

Conditions: 298.15 K, 101.3 kPa, Liquid; for viscosity: Capillary tube (Ostwald / Ubbelohde) method; for speed of sound: Pulse-echo method; for mass density: Vibrating tube method

Row | Compound | viscosity | speed of sound | mass density
1 | COCCO [2-methoxyethan-1-ol] | 1.512 ± 0.013 mPa·s | 1343.5 ± 1.2 m/s | 960.978 ± 0.23 kg/m3
2 | CCCCCCCCCCO [decan-1-ol] | 11.19 ± 0.077 mPa·s | 1379.9 ± 1.2 m/s | 826.47 ± 0.23 kg/m3
3 | CCCCCCO [hexan-1-ol] | 4.439 ± 0.033 mPa·s | 1303.2 ± 1.2 m/s | 815.265 ± 0.23 kg/m3
4 | CCCCCCCCO [octan-1-ol] | 7.143 ± 0.051 mPa·s | 1347.6 ± 1.2 m/s | 821.794 ± 0.23 kg/m3
